Paper PMC9395446, “First-in-human phase 1/1b study to evaluate sitravatinib in patients with advanced solid tumors” (Investigational New Drugs, 2022)

Assay: Safety in phase 1/1b study (DLTs, TRAEs, TEAEs; CTCAE v4.03)
Assay type: in vivo, human
From the text: Safety assessments included evaluation of DLTs, AEs, physical examinations, vital sign measurements, electrocardiogram recordings and laboratory tests.
A DLT was defined as a grade ≥ 4 hematologic abnormality lasting ≥ 4 days; grade 3 thrombocytopenia with clinically significant bleeding; febrile neutropenia; clinically significant grade ≥ 3 non-hematologic AEs not related to underlying malignancy; intolerable grade 2 AEs; or toxicity resulting in an inability to deliver 80% of the dose during the first treatment cycle.
The safety population included all patients who received ≥ 1 dose of sitravatinib. […] The PK evaluable population included all patients with sufficient concentration-time data for PK parameter evaluation. The modified intent-to-treat (mITT) population included all phase 1b patients who received ≥ 1 dose of study drug.

COCCNCc1ccc(-c2cc3nccc(Oc4ccc(NC(=O)C5(C(=O)Nc6ccc(F)cc6)CC5)cc4F)c3s2)nc1 [sitravatinib, Sitravatinib]
2 (3.2) n (%): Cardiac disorders TEAE, grade ≥3 (120 mg phase 1b) | Decreased appetite TEAE, grade ≥3 (120 mg phase 1b) | Musculoskeletal and connective tissue disorders TEAE, grade ≥3 (120 mg phase 1b) | Proteinuria TEAE, grade ≥3 (120 mg phase 1b) | Proteinuria TRAE, grade ≥3 (120 mg phase 1b) | Psychiatric disorders TEAE, grade ≥3 (120 mg phase 1b) | Rash TEAE, grade ≥3 (120 mg phase 1b) | Rash TRAE, grade ≥3 (120 mg phase 1b)
8 (12.9) n (%): Abdominal pain TRAE, any grade (120 mg phase 1b) | Dehydration TEAE, any grade (120 mg phase 1b) | General disorders and administration site conditions TEAE, grade ≥3 (120 mg phase 1b) | Lipase increased TEAE, any grade (120 mg phase 1b) | Neoplasms benign, malignant, unspecified TEAE, grade ≥3 (120 mg phase 1b) | Skin and subcutaneous tissue disorders TEAE, grade ≥3 (120 mg phase 1b) | TEAE leading to death (120 mg phase 1b)
24 (38.7) n (%): Hypertension TRAE, any grade (120 mg phase 1b)
61.6%: Patients with grade ≥ 3 TRAEs (150 mg arm)
11.3%: Patients discontinued due to TRAEs (120 mg)
3 (4.8) n (%): Abdominal pain TEAE, grade ≥3 (120 mg phase 1b) | Anemia TEAE, grade ≥3 (120 mg phase 1b) | Blood creatinine increased TEAE, any grade (120 mg phase 1b) | Hyponatremia TEAE, grade ≥3 (120 mg phase 1b) | Hypophosphatemia TEAE, any grade (120 mg phase 1b) | Lipase increased TEAE, grade ≥3 (120 mg phase 1b) | Nervous system disorders TEAE, grade ≥3 (120 mg phase 1b) | Respiratory, thoracic and mediastinal disorders TEAE, grade ≥3 (120 mg phase 1b)
42 (67.7) n (%): TRAE leading to treatment modification (120 mg phase 1b)
11 (17.7) n (%): Constipation TRAE, any grade (120 mg phase 1b) | Hypertension TRAE, grade ≥3 (120 mg phase 1b) | Injury, poisoning, procedural complications TEAE, any grade (120 mg phase 1b) | Metabolism and nutrition disorders TEAE, grade ≥3 (120 mg phase 1b) | Neoplasms benign, malignant, unspecified TEAE, any grade (120 mg phase 1b) | Proteinuria TRAE, any grade (120 mg phase 1b) | Stomatitis TEAE, any grade (120 mg phase 1b) | Stomatitis TRAE, any grade (120 mg phase 1b)
58 (93.5) n (%): Any TRAE (120 mg phase 1b)
16 (25.8) n (%): AST increased TEAE, any grade (120 mg phase 1b) | Blood and lymphatic system disorders TEAE, any grade (120 mg phase 1b) | Dysphonia TEAE, any grade (120 mg phase 1b)
0 n (%): AST increased TEAE, grade ≥3 (120 mg phase 1b) | AST increased TRAE, grade ≥3 (120 mg phase 1b) | Abdominal pain TRAE, grade ≥3 (120 mg phase 1b) | Asthenia TEAE, grade ≥3 (120 mg phase 1b) | Back pain TEAE, grade ≥3 (120 mg phase 1b) | Blood creatinine increased TEAE, grade ≥3 (120 mg phase 1b) | Constipation TEAE, grade ≥3 (120 mg phase 1b) | Constipation TRAE, grade ≥3 (120 mg phase 1b) | Cough TEAE, grade ≥3 (120 mg phase 1b) | Dehydration TEAE, grade ≥3 (120 mg phase 1b) | Dizziness TEAE, grade ≥3 (120 mg phase 1b) | Dizziness TRAE, grade ≥3 (120 mg phase 1b) | Dry mouth TEAE, grade ≥3 (120 mg phase 1b) | Dry mouth TRAE, grade ≥3 (120 mg phase 1b) | Dysphonia TEAE, grade ≥3 (120 mg phase 1b) | Dysphonia TRAE, grade ≥3 (120 mg phase 1b) | Edema peripheral TEAE, grade ≥3 (120 mg phase 1b) | Hypokalemia TEAE, grade ≥3 (120 mg phase 1b) | Hypomagnesemia TEAE, grade ≥3 (120 mg phase 1b) | Hypothyroidism TRAE, grade ≥3 (120 mg phase 1b) | Injury, poisoning, procedural complications TEAE, grade ≥3 (120 mg phase 1b) | Nausea TEAE, grade ≥3 (120 mg phase 1b) | Nausea TRAE, grade ≥3 (120 mg phase 1b) | Pain in extremity TEAE, grade ≥3 (120 mg phase 1b) | TRAE leading to death (120 mg phase 1b) | Vomiting TEAE, grade ≥3 (120 mg phase 1b) | Vomiting TRAE, grade ≥3 (120 mg phase 1b) | Weight decreased TEAE, grade ≥3 (120 mg phase 1b) | Weight decreased TRAE, grade ≥3 (120 mg phase 1b)
13 (21.0) n (%): PPE syndrome TRAE, any grade (120 mg phase 1b) | Proteinuria TEAE, any grade (120 mg phase 1b)
14 (22.6) n (%): AST increased TRAE, any grade (120 mg phase 1b) | Abdominal pain TEAE, any grade (120 mg phase 1b) | Hypothyroidism TRAE, any grade (120 mg phase 1b) | Nausea TRAE, any grade (120 mg phase 1b) | PPE syndrome TEAE, any grade (120 mg phase 1b)
28 (45.2) n (%): Musculoskeletal and connective tissue disorders TEAE, any grade (120 mg phase 1b) | Nervous system disorders TEAE, any grade (120 mg phase 1b)
6 (9.7) n (%): Back pain TEAE, any grade (120 mg phase 1b) | Cardiac disorders TEAE, any grade (120 mg phase 1b) | Dizziness TRAE, any grade (120 mg phase 1b) | Edema peripheral TEAE, any grade (120 mg phase 1b) | Fatigue TRAE, grade ≥3 (120 mg phase 1b) | Hyponatremia TEAE, any grade (120 mg phase 1b) | PPE syndrome TEAE, grade ≥3 (120 mg phase 1b) | PPE syndrome TRAE, grade ≥3 (120 mg phase 1b) | Rash TRAE, any grade (120 mg phase 1b) | UTI TEAE, any grade (120 mg phase 1b)
21 (33.9) n (%): Constipation TEAE, any grade (120 mg phase 1b) | Decreased appetite TEAE, any grade (120 mg phase 1b) | Fatigue TRAE, any grade (120 mg phase 1b) | Serious TEAE (120 mg phase 1b)
7 (11.3) n (%): Asthenia TEAE, any grade (120 mg phase 1b) | Blood and lymphatic system disorders TEAE, grade ≥3 (120 mg phase 1b) | Cough TEAE, any grade (120 mg phase 1b) | Dry mouth TEAE, any grade (120 mg phase 1b) | Dry mouth TRAE, any grade (120 mg phase 1b) | Fatigue TEAE, grade ≥3 (120 mg phase 1b) | Infections and infestations TEAE, grade ≥3 (120 mg phase 1b) | Investigations TEAE, grade ≥3 (120 mg phase 1b) | Psychiatric disorders TEAE, any grade (120 mg phase 1b) | TRAE leading to discontinuation (120 mg phase 1b) | Weight decreased TRAE, any grade (120 mg phase 1b)
22.2%: Patients with serious TRAEs (150 mg arm)
51.6%: Patients with grade ≥ 3 TRAEs (120 mg arm)
34 (54.8) n (%): Investigations TEAE, any grade (120 mg phase 1b) | Respiratory, thoracic and mediastinal disorders TEAE, any grade (120 mg phase 1b)
12 (19.4) n (%): Dysphonia TRAE, any grade (120 mg phase 1b) | TEAE leading to discontinuation (120 mg phase 1b) | Vomiting TEAE, any grade (120 mg phase 1b)
10 (16.1) n (%): Anemia TEAE, any grade (120 mg phase 1b) | Dizziness TEAE, any grade (120 mg phase 1b) | Weight decreased TEAE, any grade (120 mg phase 1b)
8.1%: Patients with serious TRAEs (120 mg arm)
20 (32.3) n (%): Endocrine disorders TEAE, any grade (120 mg phase 1b)
15 (24.2) n (%): ALT increased TRAE, any grade (120 mg phase 1b)
46 (74.2) n (%): TEAE leading to treatment modification (120 mg phase 1b)
4 (6.5) n (%): Diarrhea TEAE, grade ≥3 (120 mg phase 1b) | Diarrhea TRAE, grade ≥3 (120 mg phase 1b) | Hypokalemia TEAE, any grade (120 mg phase 1b) | Hypomagnesemia TEAE, any grade (120 mg phase 1b) | Pain in extremity TEAE, any grade (120 mg phase 1b)
25 (40.3) n (%): Hypertension TEAE, any grade (120 mg phase 1b)
38 (61.3) n (%): General disorders and administration site conditions TEAE, any grade (120 mg phase 1b) | Metabolism and nutrition disorders TEAE, any grade (120 mg phase 1b)
12 (19.4) 12 (19.4) n (%): Hypertension TEAE, grade ≥3 (120 mg phase 1b) | Vascular disorders TEAE, grade ≥3 (120 mg phase 1b)
3 (3.0) n (%): ALT increased TEAE, grade ≥3 (150 mg phase 1b)
1 (1.6) n (%): ALT increased TEAE, grade ≥3 (120 mg phase 1b) | ALT increased TRAE, grade ≥3 (120 mg phase 1b) | Decreased appetite TRAE, grade ≥3 (120 mg phase 1b) | Dyspnea TEAE, grade ≥3 (120 mg phase 1b) | Headache TEAE, grade ≥3 (120 mg phase 1b) | Hypophosphatemia TEAE, grade ≥3 (120 mg phase 1b) | Stomatitis TEAE, grade ≥3 (120 mg phase 1b) | Stomatitis TRAE, grade ≥3 (120 mg phase 1b) | UTI TEAE, grade ≥3 (120 mg phase 1b)
5 (8.1) n (%): Dyspnea TEAE, any grade (120 mg phase 1b) | Renal and urinary disorders TEAE, grade ≥3 (120 mg phase 1b) | Serious TRAE (120 mg phase 1b)
17 (27.4) n (%): ALT increased TEAE, any grade (120 mg phase 1b) | Decreased appetite TRAE, any grade (120 mg phase 1b)
9 (14.5) n (%): Rash TEAE, any grade (120 mg phase 1b) | Vomiting TRAE, any grade (120 mg phase 1b)
33 (53.2) n (%): Skin and subcutaneous tissue disorders TEAE, any grade (120 mg phase 1b)
17.2%: Patients discontinued due to TRAEs (150 mg)
60 (96.8) n (%): Any TEAE (120 mg phase 1b)
18 (29.0) n (%): Infections and infestations TEAE, any grade (120 mg phase 1b)
32 (51.6) n (%): TRAE grade ≥3 (120 mg phase 1b) | Vascular disorders TEAE, any grade (120 mg phase 1b)
25 (25.3) n (%): ALT increased TEAE, any grade (150 mg phase 1b)
36 (58.1) n (%): Diarrhea TEAE, any grade (120 mg phase 1b)
53 (85.5) n (%): Gastrointestinal disorders TEAE, any grade (120 mg phase 1b)
26 (41.9) n (%): Fatigue TEAE, any grade (120 mg phase 1b)
45 (72.6) n (%): TEAE grade ≥3 (120 mg phase 1b)
19 (30.6) n (%): Hypothyroidism TEAE, any grade (120 mg phase 1b) | Nausea TEAE, any grade (120 mg phase 1b) | Renal and urinary disorders TEAE, any grade (120 mg phase 1b)
31 (50.0) n (%): Diarrhea TRAE, any grade (120 mg phase 1b)
